Where two headings read alike, the source gives them in different places.
Assays:
HepG2 cells [1] = assay: Hoechst 33528 staining, nuclear morphological changes; assay type: cell-based, human; conditions: 40 μM, 48 hours, FIG. 1
Protocol: Staining with Hoechst 33528 was performed according to the method described previously (Huang et al., Cytotechnology 2009, 59, 201-208). Briefly, cells were treated with 40 μM norcantharidin, NOC15, or NC15 for 48 hours, then washed with PBS saline and stained with Hoechst 33528 (Sigma, St. Louis, Mo., USA) at a final concentration of 10 μg/mL. The slides were examined under a fluorescence microscope. Cells with a small nucleus, a high fluorescence intensity (due to chromatin condensation) or nuclear fragmentation were considered apoptotic.
To further investigate the role of apoptosis in the cytotoxicity of NOC15 and NC15, HepG2 cells were incubated with compound 2, NOC15 and NC15, respectively, for 48 hours; then were stained with Hoechst 33528 and examined by fluorescence microscope for any topical morphological changes.

HepG2 cells [2] = assay: MTT cell viability, HepG2; assay type: cell-based, human
Protocol: (§1) Cell lines used in the present disclosure include human liver carcinonoma cell line HepG2, human bladder carcinoma cell line BFTC905, human colon carcinoma cell lines HT29 and SW480, and human leukemia cell lines HL60 and Jurkat T, and mouse lymphocytic leukemia cell line L1210. Each cell lines were cultured and maintained in Dulbecco's modified Eagle media (DMEM) or RPMI 1640 medium supplemented with 10% heat inactivated fetal bovine serum (FBS), 1% penicillin/streptomycin, in 5% CO2195% air at 37° C.
(§2) The absorbance of the solution at 540 nm was measured by spectrophotometer. The IC50 values were defined as the drug concentration that inhibit 50% cell growth by setting the viability of untreated cells as 100%. Values were represented as the mean±SD from at least 3 independent experiments.
(§3) Effects of the compounds of formula (I) of this disclosure, specifically, NOC15 and NC 15, on HepG2 cells (liver carcinoma), BFTC905 (bladder carcinoma), HT29 (colon carcinoma), SW480 (colon carcinoma) and HL60 (leukemia) were assessed by cell viability analysis in accordance with procedures described above, in which compound 2, and other known anti-cancer agents including 5-FU, cisplatin and doxorubicin were respectively used as positive controls.
In this example, effects of NOC15 or NC15 on HepG2 cells were assessed by cell viability analysis in accordance with procedures described above, in which compound 2 was used as a positive control.

HepG2 cells [3] = assay: Apoptotic analysis annexin-V/PI flow cytometry; assay type: cell-based, human; conditions: 10-60 μM, 48 hours, FIG. 3
Protocol: The percentage of apototic cells was determined according to the manufacturer's protocol by using an annexin-V/FITC kit/propidium iodine (PI) flow cytometer. To facilitate the detection of apoptosis, the treated cells were centrifuged for 5 min at a speed of 1,000×g at room temperature, and then resuspended and washed once with 5 mL PBS before being stained with annexin-V/PI (apoptosis detection kit, R&D Systems, Taipei, Taiwan).
(§4) HepG2 cells were treated with 10-60 μM of the test compounds for 48 hours, then cell cycle distribution and apoptosis analysis was analyzed by flow cytometry, with the subG1 phase being stained with propidium idoine (PI). Results are illustrated in FIGS. 2 and 3.

HepG2 cells [4] = assay: Cell cycle distribution by flow cytometry (PI), HepG2; assay type: cell-based, human; conditions: 48 hours, FIG. 2
Protocol: (§5) Cultured cells with or without pre-treatment of the compounds of this invention (i.e., norcantharidin, NOC15, or NC15, 10-60 μM for 48 hours) were harvested from the cultured media and fixed by incuating with 75% iced cold ehtanol and kept at −20° C. until analysis. The fixed cells were then washed with PBS, and treated with […] (200 μg/mL, 500 μL) for about 1.5 hour at 37° C. Precipitated cells were collected by centrifugation and re-suspended in a buffer solution containing propidium iodine (PI) (40 μg/ml) and incubated in the dark for 20 min at 20-25° C. before being subject to flow cytometry analysis, where cell numbers at respective cell cycles were determined.
as §4

[5] = Body weight of treated animals; assay type: in vivo, mice; conditions: 18 mg/Kg, compared with healthy normal control, FIG. 11
Protocol: (§6) To inoculate tumor, L1210 cells (1×10^6 cells per injection) were injected either subcutaneously or intraperitoneally to lab animals to generate tumors on day 1. After 7 days, NOC15 or NC15 (diluted in normal saline) was administered intra-peritoneally at a dose of 18 mg/kg every day for 7 days. The average body weight (BW) of the animals was measured daily.
(§7) Mice were inoculated with L1210 tumor cells in accordance with the procedures described in the section of “Materials and Methods.” For in vivo therapy, animals were given 18 mg/Kg NOC15 or NC15 by intra-peritoneal route, for a period of at least 7 days. Tumor size, animal body weight, respective weights of liver and spleen, as well as the white blood cell count of each animal were then measured respectively at the indicated time. Results are depicted in FIGS. 8 to 11, respectively.

HL60 = assay: MTT cell viability, HL60; assay type: cell-based, human; conditions: for IC50: MTT, 48 hours, Mean ± SD, read-out: Growth Inhibition IC50 HL-60; for response of leukemia cell line HL60 to treatment: in words, from Table 1
Protocol: as §1, §2, §3

SW480 = assay: MTT cell viability, SW480; assay type: cell-based, human; conditions: Mean ± SD, read-out: Growth Inhibition IC50 SW480
Protocol: as §1, §2, §3

Jurkat T cells = assay: Cell cycle distribution by flow cytometry, Jurkat T cells; assay type: cell-based, human; conditions: for percentage of cells in subG1 phase: FIG. 5, FIG. 7
Protocol: as §5
Cell cycle distribution was determined by flow cytometry as described in the “Materials and Methods” section. Results is depicted in FIG. 5.
In this example, Jurkat T cells were treated with or without NC15 (2.513 μM) for 24 or 48 hours before being subject to cell cycle analysis. Results are depicted in FIG. 7.

HT29 = assay: MTT cell viability, HT29; assay type: cell-based, human; conditions: Mean ± SD, read-out: Growth Inhibition IC50 HT-29
Protocol: as §1, §2, §3

BFTC905 = assay: MTT cell viability, BFTC905; assay type: cell-based, human; conditions: Mean ± SD, read-out: Growth Inhibition IC50 BFTC905
Protocol: as §1, §2, §3

normal hepatic cells = assay: Ex vivo growth of normal hepatic cells; assay type: cell-based; conditions: at about 8.2 μM
L1210 cells = assay: Syngeneic L1210 tumor in vivo therapy; set-up: species or system DBA/2 mice
Protocol: The DBA/2 mice (about 7 weeks old, 18-22 g) were obtained from BioLASCO Taiwan Co., Ltd. All mice were housed in specific pathogen-free condition with ad libitum access to water and laboratory chow. A solution of L1210 cells was injected into the subcutaneous tissue to establish a syngeneic tumor. Alternatively, the L1210 cells was injected peritoneally. All animal experiments were performed in accordance with the guidelines of the Animal Welfare Committee of Taipei Veterans General Hospital (Taiwan, R.O.C.).
as §6
After treatment, mice were sacrificed, and their tumors, livers and spleens were harvested and weighted, respectively; and white blood cells (WBC) counts were also measured.
as §7

[6] = system: human leukemia cells (Jurkat T cells); assay: Cell viability (CCK-8), PMAI activated leukemia Jurkat T cells model; assay type: cell-based
Protocol: (§8) The cell viability assays were performed in 96-well plates. The 100 μl of cell suspensions (NHL or Jurkat T cells, 5×10^3 cells/well, serum-free medium) were inoculated in the wells and the plates were pre-incubated in the incubator for 24 hours (pre-incubated for 22 hours and stimulated with PMA 5 ng/ml plus ionomycin 250 ng/ml for 2 hours in PMAI-treated groups). Then, various concentrations of norcantharidin (0, 2, 4, 15, 30 and 60 μM) or NOC15 (0, 0.25, 0.5, 1, 2 and 4 μM) were added into the culture media in the wells. After 24 hours of incubation, the cell viability of NHL and Jurkat T cells was measured by cell counting kit-8 (CCK-8, Sigma). The half maximal inhibitory concentrations (IC50) of norcantharidin and NOC15 on Jurkat T cells and NHL cells were calculated.
(§9) In this example, a model of phorbol 12-myristate 13-acetate plus ionomycin (PMAI) activated leukemia Jurkat T cells model was employed to investigate the effects of the NOC15 on human leukemia cells (Jurkat T cells) and human lymphoblast cells (NHL).

[7] = system: human lymphoblast cells (NHL); assay: Cell viability (CCK-8), normal lymphoblast cells; assay type: cell-based; conditions: 24 hours (NC15: 24 and 48 hours), FIG. 4, FIG. 6
Protocol: as §8, §9

[8] = Homo sapiens, HepG2, 24 h, Mean ± SD, read-out: Growth Inhibition On Hepatic Cancer Cells IC50 24 hrs
[9] = Homo sapiens, HepG2, 48 h, MTT, 48 hours, Mean ± SD, read-out: Growth Inhibition IC50 HepG2
[10] = Homo sapiens, HepG2, 48 h, Mean ± SD, read-out: Growth Inhibition On Hepatic Cancer Cells IC50 48 hrs
[11] = Homo sapiens, HepG2, 72 h, Mean ± SD, read-out: Growth Inhibition On Hepatic Cancer Cells IC50 72 hrs
[12] = Homo sapiens, BFTC-905, 48 hours
[13] = MTT, 48 hours, Mean ± SD, read-out: Growth Inhibition IC50 HepG2

Compound | nuclear morphological changes (apoptosis features) (HepG2 cells [1]) | IC50 (HepG2 cells [2]; [8]) | IC50 (HepG2 cells [2]; [9]) | IC50 (HepG2 cells [2]; [10]) | IC50 (HepG2 cells [2]; [11]) | percentage of apoptotic cells / cell death (HepG2 cells [3]) | IC50 (HL60; Homo sapiens, HL-60) | response of leukemia cell line HL60 to treatment (HL60) | IC50 (SW480; Homo sapiens, SW480, 48 hours) | IC50 (HT29; Homo sapiens, HT-29, 48 hours) | IC50 (BFTC905; [12]) | IC50 (HepG2 cells [2]; [13]) | IC50 (HL60) | IC50 (SW480; 48 hours) | IC50 (HT29; 48 hours) | also measured
CC(C)=CCCC(C)=CCCC(C)=CCON1C(=O)C2C3CCC(O3)C2C1=O (stereo not drawn) [Compound 9, N-farnesyloxy-7-oxabicyclo[2.2.1]heptane-2,3-dicarboximide] | Significant morphological features of apotosis | 10.7 ± 0.2 µM | 8.3 ± 1.3 µM | 8.3 ± 1.3 µM | 8.2 ± 0.6 µM | dose-dependent | 39 ± 1.1 µM | did respond | 18.5 ± 2.3 µM | 9.7 ± 1.7 µM | 11.3 ± 1 µM |  |  |  |  | IC50 (HepG2 cells [2]; Homo sapiens, HepG2, hepatic cancerous cells, time not given, read-out: concentration inhibiting ex vivo growth of hepatic cancerous cells for about 50%): ~8.2 µM; accumulation of cells in G2/M phase (HepG2 cells [4]; 10-60 μM): inducing the accumulation of cells in G2/M phase; total body weight along the course of treatment [5]: gradually improved the total body weight; percentage of cells in subG1 phase (Jurkat T cells; treated 24 hours (NC15 2.513 μM)): increased; percentage of cells in subG1 phase (Jurkat T cells; treated 48 hours (NC15 2.513 μM)): increased; percentage of cells in G2/M phase (Jurkat T cells; treated 48 hours, FIG. 5C): increased; effect on normal hepatic cells (normal hepatic cells): un-affected; weight of liver (L1210 cells; IP-inoculated tumor, 18 mg/kg i.p., FIG. 9B): improved significantly; weight of spleen (L1210 cells; IP-inoculated tumor, 18 mg/kg i.p., FIG. 9C): improved significantly; increase in life span (L1210 cells; SC-inoculated tumors, 18 mg/kg i.p. daily, FIG. 8A): about 40%; weight of s.c. tumor (L1210 cells; SC-inoculated, 18 mg/kg i.p., FIG. 9A): Significant reduction; white blood cell (WBC) counts (L1210 cells; day 14, SC- or IP-injected L1210, 18 mg/kg i.p., FIG. 10): significant reductions
N.N.[Cl][Pt][Cl] [Cisplatin, cisplatin] |  |  |  |  |  |  |  | did not respond well |  |  |  | 36.1 ± 3.1 µM | > 100 µM | 40.7 ± 1.2 µM | 24.1 ± 0.1 µM | 
COc1cccc2c1C(=O)c1c(O)c3c(c(O)c1C2=O)C[C@@](O)(C(=O)CO)C[C@@H]3O[C@H]1C[C@H](N)[C@H](O)[C@H](C)O1 [Doxorubicin, doxorubicin] |  |  | 0.3 µM |  |  |  | 14.3 ± 0.9 µM |  | 0.5 ± 0.1 µM | 1.7 ± 0.2 µM |  |  |  |  |  | 
O=C1OC(=O)C2C3CCC(O3)C12 (stereo not drawn) [Compound 2, 7-oxabicyclo[2.2.1]heptane-2,3-dicarboxylic anhydride, reference compound] | Significant morphological features of apotosis | 48 ± 0.7 µM | 42 ± 1.8 µM | 42 ± 1.8 µM | 22.8 ± 0.6 µM | cytoxic effect was only observed when high concentration of compound 2 was used | > 100 µM |  | 49.1 ± 8.4 µM | 19.5 ± 0.2 µM | 18.9 ± 0.3 µM |  |  |  |  | fraction of apoptotic cells (subG1) (HepG2 cells [4]; 10 μM): only a small fraction of apoptotic cells; fraction of apoptotic cells (subG1) (HepG2 cells [4]; 20 μM): 1.6%; fraction of apoptotic cells (subG1) (HepG2 cells [4]; 60 μM): 16.7%; cytotoxicity to leukemia Jurkat T cells ([6]; 24 hours (NC15: 24 and 48 hours), FIG. 4, FIG. 6): toxic; percentage of viable cells if pre-treated with PMA ([6]; PMA plus ionomycin pre-treatment, FIG. 4): increased slightly; cytotoxicity to normal lymphatic/lymphoblast cells (NHL) [7]: did not possess significant cytotoxicity
O=c1[nH]cc(F)c(=O)[nH]1 [Compound 5-FU, 5-FU] |  |  |  |  |  |  |  | did not respond well |  |  |  | 40.2 ± 7.6 µM | > 100 µM | 32.7 ± 8.3 µM | > 100 µM | IC50 (BFTC905; 48 hours): > 100 µM
